Laboratory results taken from publication PMC9179882 (Cancers, 2022).

System: SW480 xenograft
Test: SW480 xenograft study in NSG mice
Type: in vivo, NOD scid gamma (NSG) mice
Method: NOD scid gamma (NSG) mice were purchased from CIBM-UGR and housed at the animal facility according to institutional guidelines (Approved Ethical Committee #152-CEEA-OH-2016). For xenograft generation, 1 × 10^5 SW480 cells in 100 μL PBS were subcutaneously injected into the flank of 8-week-old female mice. Treatment started when tumors reached ~20 mm^3. Mice were randomly divided into two groups of seven mice each and treated with either vehicle DMSO or 200 mg/kg of GA intraperitoneally every other day for 38 days. Animals were monitored every two days after cell injection until final time point when they were sacrificed, and tumors were dissected for further analyses. Specifically, tumor volumes were determined every two days using digital calipers according to the formula: In progress tumor volume = (π × length × width^2)/6 [12].
Fixation, paraffin-embedding, and sectioning of tumor samples were performed by the histopathology core service at the Centre for Genomics and Oncological Research (Granada, Spain). In order to evaluate the percentage of proliferating cells, tumor sections were immunostained with Ki67 and counterstained with hematoxylin and eosin (H&E) at Atrys Health (Barcelona, Spain). The staining was visualized using NDP.view2 Viewing software (Hamamatsu), and Ki67 coverage was quantified on ten different images per tumor using Fiji software. In order to measure BG4 signal, tumor sections were dewaxed and rehydrated following standard methods. Epitope retrieval was performed at 100 °C for 20 min with citrate buffer (citrate-based buffer pH 6.0) according to previous studies. […] Slides were then counterstained for 5 min with DAPI to visualize the cell nuclei. Antifade Mowiol (81381, Merck, Darmstadt, Germany) was used as mounting media. Images were acquired on a Confocal Zeiss LSM 710 inverted microscope with a 63× immersion objective. BG4 mean nuclear fluorescence intensity was quantified using Fiji software (N > 2000). Antibodies used are listed in Supplementary Table S1.
We investigated the activity of GA in a mouse xenograft model of CRC to determine if the in vitro activity of GA was paralleled in vivo. According to previous reports with SW480 cells, we executed xenograft studies by subcutaneous injection in NOD scid gamma (NSG) mice. Intraperitoneal treatment started when tumors reached ~20 mm^3 (35 days post-injection), and a therapeutic schedule with either a vehicle or 200 mg/kg of GA, every other day for 38 days, was explored based on previous studies. Initially, each group included seven animals but two mice from the control group were excluded because the tumors had developed late. Therefore, five mice were considered in the control group and seven in the GA-treated one. […] In particular, when comparing the tumor volume between control and treated animals at each time point by Student’s two-tailed t-test, significant differences were observed from the 23rd day after initiation of the treatment. Histopathological analyses of tumors from animals sacrificed at the ending point were also conducted. […] Furthermore, immunohistochemical assessment of the antigen Ki67 was used to estimate cell proliferation.

[1] = tumors at end point, 200 mg/kg GA

## O=C(O)c1cc(O)c(O)c(O)c1 [Gallic acid, 3,4,5-trihydroxybenzoic acid]
200 mg/kg GA i.p. every other day for 38 days
  body weight reduction or adverse effects: No body weight reduction or adverse effects such as tumor ulceration was observed
200 mg/kg GA i.p. every other day for 38 days vs vehicle
  progression of tumor xenografts (tumor volume): robust blockade on the progression of tumor xenografts
CRC xenografts treated with GA
  damage to major organs: without causing observable damage to major organs
Responder mice, 200 mg/kg GA
  5′ETS expression in tumors (qRT-PCR): significantly downregulated
  CMYC expression in tumors (qRT-PCR): significantly downregulated
[1]
  Ki67 coverage in tumor sections: coverage of Ki67 was significantly decreased
  nuclear BG4 signal in tumor sections: significant increase in nuclear BG4 signal
